Values quoted from earlier work in patent US7638299B2, “Biosynthetic polypeptides utilizing non-naturally encoded amino acids” (Ambrx, Inc., priority 2004, dated 2009).
Where two headings read alike, the source gives them in different places. No end group written: not given here.

What was measured:
GLP-1 receptor = target: T1, GLP-1 receptor (Rattus norvegicus, UniProt P32301); settings: rats
T1 construct: host or cells: live rats (endogenous receptor)
T1 sequence (P32301 22-463): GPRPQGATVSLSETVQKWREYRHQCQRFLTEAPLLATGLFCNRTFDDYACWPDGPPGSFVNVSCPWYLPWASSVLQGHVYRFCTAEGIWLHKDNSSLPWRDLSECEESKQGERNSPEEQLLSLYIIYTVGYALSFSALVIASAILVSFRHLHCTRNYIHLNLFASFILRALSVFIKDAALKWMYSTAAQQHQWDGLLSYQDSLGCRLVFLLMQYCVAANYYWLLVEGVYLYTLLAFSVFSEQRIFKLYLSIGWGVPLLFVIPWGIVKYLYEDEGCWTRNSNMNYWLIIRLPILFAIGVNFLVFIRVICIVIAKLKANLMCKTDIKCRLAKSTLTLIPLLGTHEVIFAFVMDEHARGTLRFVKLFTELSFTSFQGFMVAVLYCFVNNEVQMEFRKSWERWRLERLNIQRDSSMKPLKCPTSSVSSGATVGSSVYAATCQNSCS

[1] = U.S. Pat. No. 5,118,666
[2] = stored at 4° C. (Mojsov)
[3] = in vitro studies and in animals
NIDDM patients = settings: 4 ng/kg/min intravenously, continuously for one week
[4] = humans
[5] = Kreymann et al., 1987
[6] = administered subcutaneously
[7] = intraventricular administration

## exendin 9-39
Food intake in rats; appropriate doses of the GLP-1 antagonist
  antagonism of the GLP-1 effect on food intake: abolish the effects of GLP-1
GLP-1 receptor
  incretin effect elicited by oral glucose: dramatically reduces the incretin effect

## PYY: thirty six amino acid long peptide secreted by endocrine cells of the distal gastrointestinal tract
Lean and obese subjects; administered intravenously, lean and obese subjects
  appetite and food intake: suppresses appetite and food intake
Lean and obese subjects; oral, low absorption and rapid degradation in the gastrointestinal tract
  oral activity: negligible

## GLP-1(7-37): SEQ ID NO: 2; His-Ala-Glu-Gly-...-Lys-Gly-Arg-X wherein X is Gly
[1]
  biological half-life: 3 to 5 minutes
  serum half-life: 3 to 5 min
[2]
  appearance of by-products on storage: have been found as early as eleven months after sample preparation

## enfuvirtide
HIV-1
  inhibition of HIV-1 mediated CD-4+ cell-cell fusion (syncytial formation) and infection of CD-4+ cells by cell-free virus: potent inhibitor
[3]
  toxicity: non-toxic

## GLP-1: product of the proglucagon gene, gut incretin hormone
NIDDM patients
  glycaemic control: dramatically improve glycaemic control
  side effects: without significant side effects
Food intake in rats; acute, peripheral administration
  food intake: does not inhibit food intake acutely
Food intake in rats; [7]
  food intake: profoundly inhibits food intake
[4]
  plasma half-life: 2 min
[5]
  half-life of circulating GLP-1: about 4 minutes

## N-terminally extended GLP-1 (PG 72-107)amide: N-terminally extended GLP-1, proglucagon 72-107 amide (QDFVQWLMNTKRNRNNIAKRHDEFERHAEGTFTSDV-NH2; UniProt P01275 72-107, looked up, fragment)
Food intake in rats; [7]
  food intake: inactive

## GLP-1(7-36) amide: SEQ ID NO: 1; His-Ala-Glu-Gly-...-Lys-Gly-Arg-X wherein X is NH2 (HAEGTFTSDVSSYLEGQAAKEFIAWLVKGR-NH2; listed as Homo sapiens)
[6]
  time action: about 50 minutes
